# In patent US8163771B2, “11 β-HSD1 modulators” (Exelixis, Inc., priority 2008, dated 2012):
# Target: T1, recombinant human 11 β-HSD1 (Homo sapiens, UniProt P28845)
# T1 construct: made in house; host or cells: E. coli
# Assay: 11 β-HSD1 SPA Assay (Scintillation Proximity Assay)
# Format: biochemical
# In short: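 E. coli-expressed human enzyme (30-100 nM) with tritiated cortisone 40 nM and NADPH 1 mM in HEPES buffer pH7.4, 2 hours at room temperature. Stopped with protein A SPA beads carrying anti-cortisol antibody and glycyrrhetinic acid; counted after overnight incubation. IC50 from percent inhibition between no-enzyme and no-compound signals.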
# T1 sequence (P28845 whole entry): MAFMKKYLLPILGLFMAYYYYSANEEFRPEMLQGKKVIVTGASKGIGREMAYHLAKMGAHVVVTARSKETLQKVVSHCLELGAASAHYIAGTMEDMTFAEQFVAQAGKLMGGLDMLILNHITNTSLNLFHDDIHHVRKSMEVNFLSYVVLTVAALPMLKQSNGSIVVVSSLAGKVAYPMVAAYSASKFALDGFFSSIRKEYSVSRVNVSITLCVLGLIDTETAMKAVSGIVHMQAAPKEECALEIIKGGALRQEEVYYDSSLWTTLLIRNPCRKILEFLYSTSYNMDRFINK
row,SMILES,IC50 [nM]
1,"CC(C)(O)CNC(=O)c1ccc(N2[C@@H]3CC[C@H]2C[C@@H](NC(=O)C(C)(C)Oc2ccc(Cl)cc2OC(F)(F)F)C3)nc1 [Example 438, 6-[3-endo-({2-[4-chloro-2-(trifluoromethoxy)phenoxy]-2-methylpropanoyl}amino)-8-azabicyclo[3.2.1]oct-8-yl]-N-(2-hydroxy-2-methylpropyl)pyridine-3-carboxamide]",< 200
2,"C[C@H](NC(=O)c1ccc(N2C3CCC2CC(NC(=O)C(C)(C)Oc2ncc(F)cc2C(F)F)C3)nc1)C(F)(F)F (stereo partly drawn) [Example 439, 6-{3-endo-[(2-{[3-(difluoromethyl)-5-fluoropyridin-2-yl]oxy}-2-methylpropanoyl)amino]-8-azabicyclo[3.2.1]oct-8-yl}-N-[(2S)-1,1,1-trifluoropropan-2-yl]pyridine-3-carboxamide]",< 2000
3,"CC(C)(Oc1ncc(F)cc1C(F)F)C(=O)N[C@H]1C[C@H]2CC[C@@H](C1)N2c1ccc(C(=O)NCC(F)F)cn1 [Example 440, N-(2,2-difluoroethyl)-6-{3-endo-[(2-{[3-(difluoromethyl)-5-fluoropyridin-2-yl]oxy}-2-methylpropanoyl)amino]-8-azabicyclo[3.2.1]oct-8-yl}pyridine-3-carboxamide]",< 200
4,"CC(C)(Oc1ccc(F)c(Cl)c1Cl)C(=O)N[C@H]1C[C@H]2CC[C@@H](C1)N2c1ccc(C(=O)NCC(F)F)cn1 [Example 441, 6-(3-endo-{[2-(2,3-dichloro-4-fluorophenoxy)-2-methylpropanoyl]amino}-8-azabicyclo[3.2.1]oct-8-yl)-N-(2,2-difluoroethyl)pyridine-3-carboxamide]",< 200
5,"CC(C)(Oc1cc(F)c(F)cc1Cl)C(=O)N[C@H]1C[C@H]2CC[C@@H](C1)N2c1ccc(C(=O)NCC(F)F)cn1 [Example 442, 6-(3-endo-{[2-(2-chloro-4,5-difluorophenoxy)-2-methylpropanoyl]amino}-8-azabicyclo[3.2.1]oct-8-yl)-N-(2,2-difluoroethyl)pyridine-3-carboxamide]",< 200
6,"CC(C)(Oc1ccc(F)cc1F)C(=O)N[C@H]1C[C@H]2CC[C@@H](C1)N2c1ccc(C(=O)NCC(F)F)cn1 [Example 443, N-(2,2-difluoroethyl)-6-(3-endo-{[2-(2,4-difluorophenoxy)-2-methylpropanoyl]amino}-8-azabicyclo[3.2.1]oct-8-yl)pyridine-3-carboxamide]",< 200
7,"CC(C)(Oc1cc(CC(=O)O)c(Cl)cc1Cl)C(=O)N[C@H]1C[C@H]2CC[C@@H](C1)N2c1ccc(C(=O)NCC(F)(F)F)cn1 [Example 444, [2,4-dichloro-5-({2-methyl-1-oxo-1-[(8-{5-[(2,2,2-trifluoroethyl)carbamoyl]pyridin-2-yl}-8-azabicyclo[3.2.1]oct-3-endo-yl)amino]propan-2-yl}oxy)phenyl]acetic acid]",< 200
8,"CC(C)(Oc1cc(C(C)(C)C(=O)O)c(Cl)cc1Cl)C(=O)N[C@H]1C[C@H]2CC[C@@H](C1)N2c1ccc(C(=O)NCC(F)(F)F)cn1 [Example 445, 2-[2,4-dichloro-5-({2-methyl-1-oxo-1-[(8-{5-[(2,2,2-trifluoroethyl)carbamoyl]pyridin-2-yl}-8-azabicyclo[3.2.1]oct-3-endo-yl)amino]propan-2-yl}oxy)phenyl]-2-methylpropanoic acid]",< 200
9,"CC(C)(Oc1cc(C(C)(C)C(N)=O)c(Cl)cc1Cl)C(=O)N[C@H]1C[C@H]2CC[C@@H](C1)N2c1ccc(C(=O)NCC(F)(F)F)cn1 [Example 446, 6-[3-endo-({2-[5-(1-amino-2-methyl-1-oxopropan-2-yl)-2,4-dichlorophenoxy]-2-methylpropanoyl}amino)-8-azabicyclo[3.2.1]oct-8-yl]-N-(2,2,2-trifluoroethyl)pyridine-3-carboxamide]",< 200
10,"CC(C)(Oc1ccc(Cl)cc1F)C(=O)N[C@H]1C[C@H]2CC[C@@H](C1)N2c1ccc(C(=O)NCC(F)F)cn1 [Example 447, 6-(3-endo-{[2-(4-chloro-2-fluorophenoxy)-2-methylpropanoyl]amino}-8-azabicyclo[3.2.1]oct-8-yl)-N-(2,2-difluoroethyl)pyridine-3-carboxamide]",< 200
11,"CC(C)(Oc1ccc(Cl)cc1OC(F)(F)F)C(=O)NC1CC2CCC(C1)N2c1ccc(C(=O)NCC(O)C(F)(F)F)cn1 (stereo not drawn) [Example 448, 6-[3-endo-({2-[4-chloro-2-(trifluoromethoxy)phenoxy]-2-methylpropanoyl}amino)-8-azabicyclo[3.2.1]oct-8-yl]-N-(3,3,3-trifluoro-2-hydroxypropyl)pyridine-3-carboxamide]",< 200
12,"CC(C)(Oc1ccc(Cl)cc1C(F)F)C(=O)NC1CC2CCC(C1)N2c1ccc(C(=O)NCC(O)C(F)(F)F)cn1 (stereo not drawn) [Example 449, 6-[3-endo-({2-[4-chloro-2-(difluoromethyl)phenoxy]-2-methylpropanoyl}amino)-8-azabicyclo[3.2.1]oct-8-yl]-N-(3,3,3-trifluoro-2-hydroxypropyl)pyridine-3-carboxamide]",< 200
13,"C[C@@H](NC(=O)c1ccc(N2C3CCC2CC(NC(=O)C(C)(C)Oc2cc(F)c(Cl)cc2Cl)C3)nc1)C(F)(F)F (stereo partly drawn) [Example 450, 6-(3-endo-{[2-(2,4-dichloro-5-fluorophenoxy)-2-methylpropanoyl]amino}-8-azabicyclo[3.2.1]oct-8-yl)-N-[(2R)-1,1,1-trifluoropropan-2-yl]pyridine-3-carboxamide]",< 200
14,"C[C@@H](NC(=O)c1ccc(N2C3CCC2CC(NC(=O)C(C)(C)Oc2cc(F)c(F)cc2Cl)C3)nc1)C(F)(F)F (stereo partly drawn) [Example 451, 6-(3-endo-{[2-(2-chloro-4,5-difluorophenoxy)-2-methylpropanoyl]amino}-8-azabicyclo[3.2.1]oct-8-yl)-N-[(2R)-1,1,1-trifluoropropan-2-yl]pyridine-3-carboxamide]",< 200
15,"C[C@@H](NC(=O)c1ccc(N2C3CCC2CC(NC(=O)C(C)(C)Oc2ccc(F)cc2Cl)C3)nc1)C(F)(F)F (stereo partly drawn) [Example 452, 6-(3-endo-{[2-(2-chloro-4-fluorophenoxy)-2-methylpropanoyl]amino}-8-azabicyclo[3.2.1]oct-8-yl)-N-[(2R)-1,1,1-trifluoropropan-2-yl]pyridine-3-carboxamide]",< 200
16,"C[C@H](NC(=O)c1ccc(N2C3CCC2CC(NC(=O)C(C)(C)Oc2ccc(C(F)F)cc2Cl)C3)nc1)C(F)(F)F (stereo partly drawn) [Example 453, 6-[3-endo-({2-[2-chloro-4-(difluoromethyl)phenoxy]-2-methylpropanoyl}amino)-8-azabicyclo[3.2.1]oct-8-yl]-N-[(2S)-1,1,1-trifluoropropan-2-yl]pyridine-3-carboxamide]",< 200
17,"CC(C)(Oc1ccc(Cl)cc1OC(F)(F)F)C(=O)NC1CC2CCC(C1)N2c1ccc(C(=O)N2CCC(O)C2)cn1 (stereo not drawn) [Example 454, 2-[4-chloro-2-(trifluoromethoxy)phenoxy]-n-(8-{5-[(3-hydroxypyrrolidin-1-yl)carbonyl]pyridin-2-yl}-8-azabicyclo[3.2.1]oct-3-endo-yl)-2-methylpropanamide]",< 200
18,"CC(C)(Oc1ccc(Cl)cc1OC(F)(F)F)C(=O)NC1CC2CCC(C1)N2c1ccc(C(=O)N2CCC[C@H]2CO)cn1 (stereo partly drawn) [Example 455, 2-[4-chloro-2-(trifluoromethoxy)phenoxy]-n-[8-(5-{[(2s)-2-(hydroxymethyl)pyrrolidin-1-yl]carbonyl}pyridin-2-yl)-8-azabicyclo[3.2.1]oct-3-endo-yl]-2-methylpropanamide]",< 200
19,"CC(C)(Oc1ccc(Cl)cc1Cl)C(=O)NC1CC2CCC(C1)N2c1ccc(C(=O)NC[C@H](O)C(F)(F)F)cn1 (stereo partly drawn) [Example 456, 6-(3-endo-{[2-(2,4-dichlorophenoxy)-2-methylpropanoyl]amino}-8-azabicyclo[3.2.1]oct-8-yl)-N-[(2S)-3,3,3-trifluoro-2-hydroxypropyl]pyridine-3-carboxamide]",< 200
20,"CC(C)(Oc1ccc(F)cc1Cl)C(=O)NC1CC2CCC(C1)N2c1ccc(C(=O)NCC(O)C(F)(F)F)cn1 (stereo not drawn) [Example 457, 6-(3-endo-{[2-(2-chloro-4-fluorophenoxy)-2-methylpropanoyl]amino}-8-azabicyclo[3.2.1]oct-8-yl)-N-(3,3,3-trifluoro-2-hydroxypropyl)pyridine-3-carboxamide]",< 200
21,"CC(C)(Oc1ccc(Cl)cc1C(F)(F)F)C(=O)NC1CC2CCC(C1)N2c1ccc(C(=O)NCC(O)C(F)(F)F)cn1 (stereo not drawn) [Example 458, 6-[3-endo-({2-[4-chloro-2-(trifluoromethyl)phenoxy]-2-methylpropanoyl}amino)-8-azabicyclo[3.2.1]oct-8-yl]-N-(3,3,3-trifluoro-2-hydroxypropyl)pyridine-3-carboxamide]",< 200
22,"CC(C)(Oc1ccc(F)cc1C(F)(F)F)C(=O)NC1CC2CCC(C1)N2c1ccc(C(=O)NCC(O)C(F)(F)F)cn1 (stereo not drawn) [Example 459, 6-[3-endo-({2-[4-fluoro-2-(trifluoromethyl)phenoxy]-2-methylpropanoyl}amino)-8-azabicyclo[3.2.1]oct-8-yl]-N-(3,3,3-trifluoro-2-hydroxypropyl)pyridine-3-carboxamide]",< 200
23,"CC(C)(Oc1cc(CC(=O)O)c(Cl)cc1Cl)C(=O)N[C@H]1C[C@H]2CC[C@@H](C1)N2c1ccc(C(=O)NCC(F)F)cn1 [Example 460, [2,4-dichloro-5-({1-[(8-{5-[(2,2-difluoroethyl)carbamoyl]pyridin-2-yl}-8-azabicyclo[3.2.1]oct-3-endo-yl)amino]-2-methyl-1-oxopropan-2-yl}oxy)phenyl]acetic acid]",< 200
24,"CC(C)(Oc1ccc(Cl)cc1Cl)C(=O)NC1CC2CCC(C1)N2c1ccc(C(=O)N2CC[C@@H](O)C2)cn1 (stereo partly drawn) [Example 461, 2-(2,4-dichlorophenoxy)-n-[8-(5-{[(3r)-3-hydroxypyrrolidin-1-yl]carbonyl}pyridin-2-yl)-8-azabicyclo[3.2.1]oct-3-endo-yl]-2-methylpropanamide]",< 200
25,"CC(C)(Oc1ccc(Cl)cc1Cl)C(=O)NC1CC2CCC(C1)N2c1ccc(C(=O)N2CC[C@H](O)C2)cn1 (stereo partly drawn) [Example 462, 2-(2,4-dichlorophenoxy)-N-[8-(5-{[(3s)-3-hydroxypyrrolidin-1-yl]carbonyl}pyridin-2-yl)-8-azabicyclo[3.2.1]oct-3-endo-yl]-2-methylpropanamide]",< 200
